According to patent US9260504B2, “N- and C-terminal substituted antagonistic analogs of GH-RH” (University of Miami, priority 2008, dated 2016):

How the values were obtained:
Assay type in all cases: in vivo
[1] = tested on: H-460 human non-small cell lung cancer; experiment: H-460 human non-SCLC xenografts in nude mice, Experiment 3; details: 28 days
Method: Male nude mice were implanted s.c. with 3 mm^3 pieces of H-460 human non-SCLC tumor tissue on both flanks. When tumors had grown to a mean volume of approximately 90 mm^3, the mice were randomly assigned into 8 experimental groups with 8 to 10 animals in each group and received single daily injections for 28 days as follows: 1. Control (vehicle solution); 2. JMR-132 (10 μg/day s.c.); 3. Peptide 11123 (5 μg/day s.c.); 4. Peptide 11125 (5 μg/day s.c.); 5. Peptide 11307 (5 μg/day s.c.); 6. Peptide 11317 (5 μg/day s.c.); 7. Peptide 11473 (5 μg/day s.c.); 8. Peptide 11485 (5 μg/day s.c.). Tumor volumes were measured once a week. The experiment was ended on day 28 by sacrificing the mice under Isoflurane anesthesia. Resulting tumors were cleaned, weighed, and snap-frozen until further analyses. Statistical analyses of the measurement results were done by two-tailed t-test, p<0.05 being considered significant.

[2] = tested on: H460 human non-small cell lung cancer cell line; experiment: H460 human non-small cell lung cancer xenografts in nude mice (Example XV); details: 5 μg/day s.c.
Excerpt: The aim of this study was to find out the tumor inhibitor effect of the latest GHRH antagonists (Peptide 11423, Peptide 11602, Peptide 11604, Peptide 11606) on H460 human non-small cell lung cancer cell line. Female nude mice were xenografted subcutaneously with approximately 3 mm^3 pieces of H460 human non-small cell lung cancer malignant tumor tissue. When tumors reached the mean volume of approximately 90 mm^3, the animals was randomly assigned into different groups. Tumor volumes and body weight were measured once a week. At the end of the experiment mice were anesthetized and sacrificed. Tumors were carefully excised, weighed and were stored at −80° C. until further investigation. Organs and tumor samples were preserved in 10% formaldehyde.

[3] = tested on: HT human diffuse mixed B cell lymphoma cell line; experiment: HT human diffuse mixed B cell lymphoma xenografts in nude mice; details: 5 μg/day s.c.
Method: The aim of this study was to find out the tumor inhibitor effect of the latest GHRH antagonists (Peptide 11602, Peptide 11604, Peptide 11606, and Peptide 11610) at the dose of 5 μg/day on HT human diffuse mixed B cell lymphoma cell line. Female nude mice were xenografted subcutaneously with approximately 3 mm^3 pieces of HT malignant tumor tissue. When tumors reached the mean volume of approximately 120 mm^3, the animals were randomly assigned into different groups. Tumor volumes and body weight were measured once a week. At the end of the experiment mice were anesthetized and sacrificed. Tumors were carefully excised, weighed and were stored at −80° C. until further investigation. Organs and tumor samples were preserved in 10% formaldehyde.

[4] = tested on: PC-3 human hormone-independent prostate cancer; experiment: PC3 androgen-independent prostate cancer xenografts in nude mice (Example XIV)
Method: Male nude mice were implanted s.c. with 3 mm^3 pieces of PC-3 human hormone-independent prostate cancer tissue on both flanks. When tumors reached a volume of approximately 50 mm^3, the mice were divided into 8 experimental groups with 8 to 10 animals in each group and received single daily injections for 28 days as follows: 1. Control (vehicle solution); 2. P-11513 2 μg/day; 3. P-11602 2 μg/day; 4. P-11602 1 μg/day; 5. P-11604 2 μg/day; 6. P-11606 2 μg/day; 7. P-11610 2 μg/day; 8. P-11610 1 μg/day.
Tumor volumes were measured once a week. The experiment was ended on day 28 by sacrificing the mice under Isoflurane anesthesia. Resulting tumors were cleaned, weighed, and snap-frozen until further analyses. Statistical analyses of the measurement results were done by two-tailed t-test, p<0.05 being considered significant.

## [(Ac-Ada)^0-Tyr^1, D-Arg^2, Cpa^6, Ala^8, Har^9, Tyr(Me)^10, His^11, Abu^15, His^20, Nle^27, D-Arg^28, Har^29-Ada^30]hGH-RH(1-29)NH2 [Peptide 11317]
[1]; 5 μg/day s.c.
  Tumor growth inhibition after 4 weeks (%): 41.00%
[1]; 5 μg/day vs JMR-132 10 μg/day
  Inhibition of H-460 lung tumor growth compared with reference peptide JMR-132: more potently inhibited the growth of H-460 lung tumors than the reference peptide JMR-132

## [(PhAc-Ada)^0-Tyr^1, D-Arg^2, (Phe(F)5)^6, Ala^8, Har^9, Tyr(Me)^10, His^11, Orn^12, Abu^15, His^20, Orn^21, Nle^27, D-Arg^28, Har^29]hGH-RH(1-29)NH2 [Peptide 11602]
[2]; day 1 (baseline)
  TUMOR GROWTH (%): 100.00%
[2]; day 7
  TUMOR GROWTH (%): 247.89%
  Tumor inhibition (%): 53.21%
[2]; day 14
  TUMOR GROWTH (%): 504.42%
  Tumor inhibition (%): 63.52%
[2]; day 21
  TUMOR GROWTH (%): 864.16%
  Tumor inhibition (%): 65.00%
[2]; day 28
  TUMOR GROWTH (%): 2575.35%
  Tumor inhibition (%): 37.18%
[3]; day 1 (baseline)
  TUMOR GROWTH (%): 100%
  Tumor inhibition (%): 0%
  Tumor volume (mm^3): 194.81 mm^3
[3]; day 7
  TUMOR GROWTH (%): 192.86%
  Tumor inhibition (%): 36.94%
  Tumor volume (mm^3): 260.13 mm^3
[3]; day 14
  TUMOR GROWTH (%): 281.4%
  Tumor inhibition (%): 41.71%
  Tumor volume (mm^3): 311.76 mm^3
[3]; day 21
  TUMOR GROWTH (%): 462.45%
  Tumor inhibition (%): 40.82%
  Tumor volume (mm^3): 332.67 mm^3
[3]; day 28
  TUMOR GROWTH (%): 608.23%
  Tumor inhibition (%): 32.15%
  Tumor volume (mm^3): 509.24 mm^3
[4]; 1 μg/day, day 0 (baseline)
  TUMOR GROWTH (%): 100%
[4]; 1 μg/day, day 7
  TUMOR GROWTH (%): 249.81%
  Tumor inhibition (%): 24.59%
[4]; 1 μg/day, day 14
  TUMOR GROWTH (%): 295.25%
  Tumor inhibition (%): 50.04%
[4]; 1 μg/day, day 21
  TUMOR GROWTH (%): 467.74%
  Tumor inhibition (%): 60.70%
[4]; 1 μg/day, day 28
  TUMOR GROWTH (%): 740.06%
  Tumor inhibition (%): 60.15%
[4]; 2 μg/day, day 0 (baseline)
  TUMOR GROWTH (%): 100%
[4]; 2 μg/day, day 7
  TUMOR GROWTH (%): 197.77%
  Tumor inhibition (%): 40.30%
[4]; 2 μg/day, day 14
  TUMOR GROWTH (%): 270.61%
  Tumor inhibition (%): 54.21%
[4]; 2 μg/day, day 21
  TUMOR GROWTH (%): 449.82%
  Tumor inhibition (%): 62.20%
[4]; 2 μg/day, day 28
  TUMOR GROWTH (%): 641.31%
  Tumor inhibition (%): 65.47%
